Laboratory results reported in PMC2877039 (Developmental cell, 2010).

Assays:
Experiment in all cases: liposome co-sedimentation, anti-Sec2 western blot
Assay type in all cases: binding
Sec2p [1] = target: T1, Sec2p (Saccharomyces cerevisiae, UniProt P17065); details: GST-Sec2; liposomes with 10 mol% PI4P; PBS, 0.4 mg/ml BSA, 25 °C
T1 sequence (P17065 1-759): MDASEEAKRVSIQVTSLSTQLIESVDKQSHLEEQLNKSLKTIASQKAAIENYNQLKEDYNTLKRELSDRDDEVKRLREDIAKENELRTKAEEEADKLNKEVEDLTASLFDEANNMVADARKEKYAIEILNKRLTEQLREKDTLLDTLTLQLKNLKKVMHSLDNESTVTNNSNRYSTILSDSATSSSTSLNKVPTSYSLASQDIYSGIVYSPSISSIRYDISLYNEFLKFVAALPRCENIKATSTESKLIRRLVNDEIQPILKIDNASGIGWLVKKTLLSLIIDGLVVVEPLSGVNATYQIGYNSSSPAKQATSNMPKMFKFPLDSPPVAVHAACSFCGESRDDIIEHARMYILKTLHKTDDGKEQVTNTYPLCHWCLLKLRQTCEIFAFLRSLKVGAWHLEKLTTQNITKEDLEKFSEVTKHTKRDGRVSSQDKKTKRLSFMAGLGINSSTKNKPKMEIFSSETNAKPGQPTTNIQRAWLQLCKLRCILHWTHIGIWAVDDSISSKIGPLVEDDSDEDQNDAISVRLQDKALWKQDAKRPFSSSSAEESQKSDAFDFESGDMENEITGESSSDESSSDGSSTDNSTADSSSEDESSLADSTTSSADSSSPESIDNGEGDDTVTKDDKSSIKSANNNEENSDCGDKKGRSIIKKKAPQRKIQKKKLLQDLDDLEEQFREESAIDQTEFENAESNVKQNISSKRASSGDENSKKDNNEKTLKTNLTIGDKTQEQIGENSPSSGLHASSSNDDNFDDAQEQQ

Sec2p [2] = target: T1, Sec2p; details: read-out: approximate Kd; GST-Sec2p; 0.05-0.5 mM liposomes with 10 mol% PI4P; PBS, 0.4 mg/ml BSA, 25 °C
Sec2p [3] = target: T1, Sec2p; details: GST-Sec2; liposomes with 10 mol% PI4P; PBS, 0.4 mg/ml BSA, 25 °C; remark: listed apart in the source
Sec2p [4] = target: T1, Sec2p; details: GST-Sec2; liposomes with 10 mol% PI4P; PBS, 0.4 mg/ml BSA, 25 °C; remark: listed apart in the source

PI4P
PI4P-binding affinity, % of wildtype (Sec2p [1]): ~ 30% | Kd (Sec2p [2]): ~185 µM | PI4P-binding, % of wildtype (Sec2p [3]): ~ 10% | PI4P-binding affinity, % of wildtype (Sec2p [4]): ~ 30%
